This is an account of results in patent US8933039B2 (NPS Pharmaceuticals, Inc., priority 1995, dated 2015).

For the assay, the system named is CD1 mice. Nature of the assay: Intestinotrophic activity assessment: small bowel weight in mice. It is filed as in vivo. As to conditions: for % Activity (small bowel inducing activity relative to native rat GLP-2(1-33) = 100%): mice, as Example 4; for % Increase in small bowel weight: CD1 mice, 2.5 μg peptide s.c. b.i.d. in PBS, sacrificed 10 or 14 days, relative to vehicle only. The method, then: Recipients were CD1 mice obtained from Charles River Laboratory (Ontario, Canada). The CD1 mice were aged-matched females at time of injection (n=3-4 per group), 6 weeks of age, unless otherwise specified. The animals were allowed a minimum of 24 hours to acclimatize to the laboratory facility before the initiation of each experiment. Animals were identified by ear punch. The mice were not restricted by diet or activity during the experiments. The light/dark cycle was 12 hours, between 6 pm to 6 am. Controls were age- and sex-matched (n=3-4) animals. Mice were injected subcutaneously, twice a day (b.i.d.), with 2.5 μg peptide in a total volume of 0.5 cc of PBS and were monitored daily in the laboratory facility. Animals were sacrificed 10 or 14 days after injection, and were fasted at least 20 hours before sacrifice.
The mice were anaesthetised with CO2 and exsanguinated by cardiac puncture. Blood was collected in 75 μl of TED (Trasysol; EDTA (5000 KIU/ml: 1.2 mg/ml; Diprotin-A), and the blood was centrifuged at 14 k×g for 5 minutes and the plasma was stored at −70 prior to analysis. The small bowel was removed from the peritoneal cavity, from pylorus to cecum, cleaned weighed and measured. For comparative purpose, sections from each animal were obtained from the identical anatomical position. Fragments each measuring 1.5-2.0 cm in length were obtained 8±2 cm, 18±2 cm, 32±2 cm from pylorus for histomorphometry representing proximal jejunum, distal jejunum and distal ileum. Each small bowel fragment was opened longitudinally on its antimesenteric border in a tissue block and then placed on 10% formalin (vol./vol.) overnight, then transferred to 70% […].
Percentage change in small bowel weight was calculated by dividing the mean change in bowel weight of analog treated mice, relative to mice treated with vehicle only, by the mean bowel weight of mice treated with vehicle only, and multiplying this figure by 100.
Experiments assessing the small bowel inducing activity of various analogs was repeated as described above for Example 4. In these experiments, the small bowel inducing activity of each analog in mice was calculated relative to that of native rat GLP-2(1-33) (expressed as 100% of activity). Resistance of analogs to DPP-IV cleavage was performed as described above in Example 3.

Non-standard residues stand in square brackets, D forms with d. Residues, ends and D or L forms follow the SMILES beside them. Met(O) = CS(=O)CC[C@H](N)C(=O)O; Nle = CCCC[C@H](N)C(=O)O

As for `CC[C@H](C)[C@H](NC(=O)[C@H](Cc1ccccc1)NC(=O)[C@H](CC(=O)O)NC(=O)[C@H](CCCNC(=N)N)NC(=O)[C@H](C)NC(=O)[C@H](C)NC(=O)[C@H](CC(C)C)NC(=O)[C@H](CC(N)=O)NC(=O)[C@H](CC(=O)O)NC(=O)[C@H](CC(C)C)NC(=O)[C@@H](NC(=O)[C@@H](NC(=O)[C@H](CC(N)=O)NC(=O)[C@H](CCSC)NC(=O)[C@H](CCC(=O)O)NC(=O)[C@H](CC(=O)O)NC(=O)[C@H](CO)NC(=O)[C@H](Cc1ccccc1)NC(=O)[C@H](CO)NC(=O)CNC(=O)[C@H](CC(=O)O)NC(=O)[C@H](C)NC(=O)[C@@H](N)Cc1c[nH]cn1)[C@@H](C)O)[C@@H](C)CC)C(=O)N[C@@H](CC(N)=O)C(=O)N[C@@H](Cc1c[nH]c2ccccc12)C(=O)N[C@@H](CC(C)C)C(=O)N[C@H](C(=O)N[C@@H](CCC(N)=O)C(=O)N[C@H](C(=O)N[C@@H](CCCCN)C(=O)N[C@H](C(=O)N[C@H](C(=O)N[C@@H](CC(=O)O)C(=O)NCCCCNC(=N)N)[C@@H](C)O)[C@@H](C)CC)[C@@H](C)O)[C@@H](C)CC` [[Agm34]hGLP-2(1-34)], the “% Activity (small bowel inducing activity relative to native rat GLP-2(1-33) = 100%)” value is 97%.
`CC[C@H](C)[C@H](NC(=O)[C@H](Cc1ccccc1)NC(=O)[C@H](CC(=O)O)NC(=O)[C@H](CCCNC(=N)N)NC(=O)[C@@H](NC(=O)[C@H](C)NC(=O)[C@H](CC(C)C)NC(=O)[C@H](CC(N)=O)NC(=O)[C@H](CC(=O)O)NC(=O)[C@H](CC(C)C)NC(=O)[C@@H](NC(=O)[C@@H](NC(=O)[C@H](CC(N)=O)NC(=O)[C@H](CC[S+](C)[O-])NC(=O)[C@H](CCC(=O)O)NC(=O)[C@H](CC(=O)O)NC(=O)[C@H](CO)NC(=O)[C@H](Cc1ccccc1)NC(=O)[C@H](CO)NC(=O)CNC(=O)[C@H](CC(=O)O)NC(=O)[C@H](C)NC(=O)[C@@H](N)Cc1c[nH]cn1)[C@@H](C)O)[C@@H](C)CC)[C@@H](C)O)C(=O)N[C@@H](CC(N)=O)C(=O)N[C@@H](Cc1c[nH]c2ccccc12)C(=O)N[C@@H](CC(C)C)C(=O)N[C@H](C(=O)N[C@@H](CCC(N)=O)C(=O)N[C@H](C(=O)N[C@@H](CCCCN)C(=O)N[C@H](C(=O)N[C@H](C(=O)N[C@@H](CC(=O)O)C(=O)O)[C@@H](C)O)[C@@H](C)CC)[C@@H](C)O)[C@@H](C)CC` (stereo partly drawn) [[Met(O)10]ratGLP-2(1-33)] (H-HADGSFSDE[Met(O)]NTILDNLATRDFINWLIQTKITD-OH): the “% Activity (small bowel inducing activity relative to native rat GLP-2(1-33) = 100%)” value stood at 18%.
For the compound `CCCC[C@H](NC(=O)[C@H](CCC(=O)O)NC(=O)[C@H](CC(=O)O)NC(=O)[C@H](CO)NC(=O)[C@H](Cc1ccccc1)NC(=O)[C@H](CO)NC(=O)CNC(=O)[C@H](CC(=O)O)NC(=O)[C@H](C)NC(=O)[C@@H](N)Cc1c[nH]cn1)C(=O)N[C@@H](CC(N)=O)C(=O)N[C@H](C(=O)N[C@H](C(=O)N[C@@H](CC(C)C)C(=O)N[C@@H](CC(=O)O)C(=O)N[C@@H](CC(N)=O)C(=O)N[C@@H](CC(C)C)C(=O)N[C@@H](C)C(=O)N[C@H](C(=O)N[C@@H](CCCNC(=N)N)C(=O)N[C@@H](CC(=O)O)C(=O)N[C@@H](Cc1ccccc1)C(=O)N[C@H](C(=O)N[C@@H](CC(N)=O)C(=O)N[C@@H](Cc1c[nH]c2ccccc12)C(=O)N[C@@H](CC(C)C)C(=O)N[C@H](C(=O)N[C@@H](CCC(N)=O)C(=O)N[C@H](C(=O)N[C@@H](CCCCN)C(=O)N[C@H](C(=O)N[C@H](C(=O)N[C@@H](CC(=O)O)C(=O)O)[C@@H](C)O)[C@@H](C)CC)[C@@H](C)O)[C@@H](C)CC)[C@@H](C)CC)[C@@H](C)O)[C@@H](C)CC)[C@@H](C)O` [[Nlel0]ratGLP-2(1-33), [Nle^10]ratGLP-2(1-33)] (H-HADGSFSDE[Nle]NTILDNLATRDFINWLIQTKITD-OH), the “% Increase in small bowel weight” value is recorded as 52% and the “% Activity (small bowel inducing activity relative to native rat GLP-2(1-33) = 100%)” value was 100%.
In the case of `CC[C@H](C)[C@H](NC(=O)[C@H](Cc1ccccc1)NC(=O)[C@H](CC(=O)O)NC(=O)[C@H](CCCNC(=N)N)NC(=O)[C@H](C)NC(=O)[C@H](C)NC(=O)[C@H](CC(C)C)NC(=O)[C@H](CC(N)=O)NC(=O)[C@H](CC(=O)O)NC(=O)[C@H](CC(C)C)NC(=O)[C@@H](NC(=O)[C@@H](NC(=O)[C@H](CC(N)=O)NC(=O)[C@H](CCSC)NC(=O)[C@H](CCC(=O)O)NC(=O)[C@H](CC(=O)O)NC(=O)[C@H](CO)NC(=O)[C@H](Cc1ccccc1)NC(=O)[C@H](CO)NC(=O)CNC(=O)[C@H](CC(=O)O)NC(=O)[C@H](C)NC(=O)[C@@H](N)Cc1c[nH]cn1)[C@@H](C)O)[C@@H](C)CC)C(=O)N[C@@H](CC(N)=O)C(=O)N[C@@H](Cc1c[nH]c2ccccc12)C(=O)N[C@@H](CC(C)C)C(=O)N[C@H](C(=O)N[C@@H](CCC(N)=O)C(=O)N[C@H](C(=O)N[C@@H](CCCCN)C(=O)N[C@H](C(=O)N[C@H](C(=O)N[C@@H](CC(=O)O)C(=O)N[C@@H](Cc1ccc(O)cc1)C(=O)O)[C@@H](C)O)[C@@H](C)CC)[C@@H](C)O)[C@@H](C)CC` [[Tyr34]hGLP-2(1-34)], the “% Activity (small bowel inducing activity relative to native rat GLP-2(1-33) = 100%)” value came to 135%.
Same read-out and setting: with “H-GSFSDEMNTILDNLATRDFINWLIQTKITD-OH [ratGLP-2(4-33)]” the figure was 6%.
Regarding “H-HADGSFSDELNTILDNLATRDFINWLIQTKITD-OH [[Leu10]ratGLP-2(1-33)]”, the “% Activity (small bowel inducing activity relative to native rat GLP-2(1-33) = 100%)” value is 51%. Besides, the “% Increase in small bowel weight” value (listed as [Leu^10]rGLP-2) was 26%.
For the compound “H-HADGSFSDEMNTILDNLAAQDFINWLIQTKITD-OH [[Gln20]hGLP-2(1-33)]”, the “% Activity (small bowel inducing activity relative to native rat GLP-2(1-33) = 100%)” value was determined as 80%.
For “H-HADGSFSDEMNTILDNLAARDFINWLIQTKITN-OH [[Asn33]hGLP-2(1-33)]”, the “% Activity (small bowel inducing activity relative to native rat GLP-2(1-33) = 100%)” value was found to be 91%.
With “H-HADGSFSDEMNTILDNLAARDFVQWLIQTKITD-OH [[Val23,Gln24]hGLP-2(1-33)]”, the “% Increase in small bowel weight” value is recorded as 36% and the “% Activity (small bowel inducing activity relative to native rat GLP-2(1-33) = 100%)” value was 82%.
Consider “H-HADGSFSDEMNTILDNLATKDFINWLIQTKITD-OH [[Lys20]ratGLP-2(1-33)]”, for which the “% Increase in small bowel weight” value came to 62% and the “% Activity (small bowel inducing activity relative to native rat GLP-2(1-33) = 100%)” value was determined as 120%.
In the case of “H-HADGSFSDEMNTILDNLATRDFINW-OH [ratGLP-2(1-25)]”, the “% Activity (small bowel inducing activity relative to native rat GLP-2(1-33) = 100%)” value is reported as 8%.
As to “H-HADGSFSDEMNTILDNLATRDFINWLIQTK-OH [ratGLP-2(1-30)]”, the “% Activity (small bowel inducing activity relative to native rat GLP-2(1-33) = 100%)” value is 23%.
For “H-HADGSFSDEMNTILDNLATRDFINWLIQTKITD-NH2 [ratGLP-2(1-33)amide]”, the “% Increase in small bowel weight” value is reported as 23% and the “% Activity (small bowel inducing activity relative to native rat GLP-2(1-33) = 100%)” value was 56%.
For “H-HADGSFSDEMNTILDSRRARDFINWLIQTKITD-OH [[Ser16, Arg17, Arg18]hGLP-2(1-33)]”, the “% Activity (small bowel inducing activity relative to native rat GLP-2(1-33) = 100%)” value is recorded as 59%.
“H-HADGSFSDYSKYLDNLAARDFINWLIQTKITD-OH [[Tyr9, Ser10, Lys11, Tyr12, des-Ile13]hGLP-2(1-33)]”: the “% Increase in small bowel weight” value was determined as 41% and the “% Activity (small bowel inducing activity relative to native rat GLP-2(1-33) = 100%)” value was found to be 94%.
As to “H-HADGTFSDEMNTILDNLAARDFINWLIQTKITD-OH [[Thr5]hGLP-2(1-33)]”, the “% Activity (small bowel inducing activity relative to native rat GLP-2(1-33) = 100%)” value turned out to be 73%.
As for “H-HGDGSASDEMNTILDNLAARDFINWLIQTKITD-OH [[Gly2,Ala6]hGLP-2(1-33)]”, the “% Increase in small bowel weight” value came to 18% and the “% Activity (small bowel inducing activity relative to native rat GLP-2(1-33) = 100%)” value came to 67%.
